According to patent US20230023802A1, “STABILIZED DRUG FORMULATIONS AND METHODS OF LOADING DRUG DELIVERY IMPLANTS” (THE METHODIST HOSPITAL SYSTEM, priority 2019, published 2023):
Where a name gives a salt, the structure may show the parent alone. Read-outs that look alike come from different tables or passages of the source.

How the values were obtained:
[1] = after 1 month, implant with 200 nm membrane in PBS sink, normalized to first time point
Method: Data are normalized to the values of day 1.
Urocanic acid was then tested. […] This formulation was loaded into an implant equipped with a 200 nm membrane. The implant was placed in 22 mL solution of PBS (the sink solution). The sink solution was replaced every 40 hours with fresh PBS. […] All results were normalized by the results of the first time point to compensate for the degradation that takes place in the sink solution.

physchem = conditions: pH 7.4
[2] = pH=5.3

Structure (SMILES) | percentage of tenofovir alafenamide in the released mixture of tenofovir derivatives [1] | percentage of tenofovir alafenamide in the released mixture of tenofovir derivatives ([1]; listed as free base tenofovir alafenamide) | half-life (physchem) | hydrolysis half-life (t1/2) [2]
CC(C)OC(=O)[C@H](C)N[P@](=O)(CO[C@H](C)Cn1cnc2c(N)ncnc21)Oc1ccccc1 [tenofovir alafenamide fumarate] | 45% |  |  | 
CC(C)OC(=O)[C@H](C)N[P@](=O)(CO[C@H](C)Cn1cnc2c(N)ncnc21)Oc1ccccc1 [tenofovir alafenamide] |  | 82% | < 48 h | over 4 months
